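Five concentrations, 48 hours, 96-well plates. GI50 marks 50% less growth. TGI marks complete inhibition of growth.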
Tests used:
Test in all cases: inhibition of tumour cell growth, NCI panel, 48 h
ACHN renal = test system: ACHN renal
SR leukemia = test system: SR leukemia
PC-3 prostate = test system: PC-3 prostate
MCF7 breast = test system: MCF7 breast
BT-549 breast = test system: BT-549 breast
A498 renal = test system: A498 renal
RPMI-8226 leukemia = test system: RPMI-8226 leukemia
RXF 393 renal = test system: RXF 393 renal
HCT-116 colon = test system: HCT-116 colon
OVCAR-4 ovarian = test system: OVCAR-4 ovarian
IGROV1 ovarian = test system: IGROV1 ovarian
SK-MEL-28 melanoma = test system: SK-MEL-28 melanoma
SNB-19 CNS = test system: SNB-19 CNS
LOX IMVI melanoma = test system: LOX IMVI melanoma
OVCAR-8 ovarian = test system: OVCAR-8 ovarian
HL-60(TB) leukemia = test system: HL-60(TB) leukemia
HS 578T breast = test system: HS 578T breast
U251 CNS = test system: U251 CNS
SF-295 CNS = test system: SF-295 CNS
SF-539 CNS = test system: SF-539 CNS
SK-MEL-2 melanoma = test system: SK-MEL-2 melanoma
SW-620 colon = test system: SW-620 colon
KM12 colon = test system: KM12 colon
SNB-75 CNS = test system: SNB-75 CNS
HOP-62 NSCLC = test system: HOP-62 NSCLC
TK-10 renal = test system: TK-10 renal
HOP-92 NSCLC = test system: HOP-92 NSCLC
UO-31 renal = test system: UO-31 renal
SF-268 CNS = test system: SF-268 CNS
EKVX NSCLC = test system: EKVX NSCLC
K-562 leukemia = test system: K-562 leukemia
SN12C renal = test system: SN12C renal
NCI-H522 lung = test system: NCI-H522 lung
M14 melanoma = test system: M14 melanoma
HCC-2998 colon = test system: HCC-2998 colon
COLO 205 colon = test system: COLO 205 colon
CAKI-1 renal = test system: CAKI-1 renal
NCI-H23 lung = test system: NCI-H23 lung
NCI-H226 lung = test system: NCI-H226 lung
CCRF-CEM leukemia = test system: CCRF-CEM leukemia
MDA-MB-435 = test system: MDA-MB-435
MALME-3M melanoma = test system: MALME-3M melanoma
SK-OV-3 ovarian = test system: SK-OV-3 ovarian
HCT-15 colon = test system: HCT-15 colon
UACC-257 melanoma = test system: UACC-257 melanoma
MDA-MB-231 breast = test system: MDA-MB-231 breast
OVCAR-3 ovarian = test system: OVCAR-3 ovarian
NCI/ADR-RES ovarian = test system: NCI/ADR-RES ovarian
SK-MEL-5 melanoma = test system: SK-MEL-5 melanoma
A549 NSCLC = test system: A549 NSCLC
UACC-62 melanoma = test system: UACC-62 melanoma
786-0 renal = test system: 786-0 renal
OVCAR-5 ovarian = test system: OVCAR-5 ovarian
NCI-H460 lung = test system: NCI-H460 lung
T-47D breast = test system: T-47D breast
DU-145 prostate = test system: DU-145 prostate
MOLT-4 leukemia = test system: MOLT-4 leukemia
HT29 colon = test system: HT29 colon

## Oc1c(Cl)cc(Cl)c2ccc(Cn3cc(-c4cc(F)cc(F)c4)nn3)nc12
ACHN renal
  GI50: 1.73 µM
  TGI: 3.14 µM
SR leukemia
  GI50: 2.87 µM
  TGI: > 100 µM
PC-3 prostate
  GI50: 5.26 µM
  TGI: 18.8 µM
MCF7 breast
  GI50: 1.54 µM
  TGI: 3.62 µM
BT-549 breast
  GI50: 2.51 µM
  TGI: 9.49 µM
A498 renal
  GI50: 5.78 µM
  TGI: 19.6 µM
RPMI-8226 leukemia
  GI50: 2.19 µM
  TGI: 6.36 µM
RXF 393 renal
  GI50: 1.36 µM
  TGI: 2.99 µM
HCT-116 colon
  GI50: 1.61 µM
  TGI: 3.53 µM
OVCAR-4 ovarian
  GI50: 1.87 µM
  TGI: 4.43 µM
IGROV1 ovarian
  GI50: 1.82 µM
  TGI: 4.18 µM
SK-MEL-28 melanoma
  GI50: 2.01 µM
  TGI: 4.18 µM
SNB-19 CNS
  GI50: 11.9 µM
  TGI: 25.1 µM
LOX IMVI melanoma
  GI50: 1.31 µM
  TGI: 2.68 µM
OVCAR-8 ovarian
  GI50: 3.42 µM
  TGI: 27.2 µM
HL-60(TB) leukemia
  GI50: 2.08 µM
  TGI: 5.78 µM
HS 578T breast
  GI50: 3.22 µM
  TGI: 20 µM
U251 CNS
  GI50: 7.38 µM
  TGI: 21.2 µM
SF-295 CNS
  GI50: 17.8 µM
  TGI: 32.9 µM
SF-539 CNS
  GI50: 1.63 µM
  TGI: 3.08 µM
SK-MEL-2 melanoma
  GI50: 5.19 µM
  TGI: 20.2 µM
SW-620 colon
  GI50: 1.49 µM
  TGI: 3.35 µM
KM12 colon
  GI50: 16.3 µM
  TGI: 32.1 µM
SNB-75 CNS
  GI50: 2.07 µM
  TGI: 11.8 µM
HOP-62 NSCLC
  GI50: 17.4 µM
  TGI: 34.9 µM
TK-10 renal
  GI50: 2.1 µM
  TGI: 4.23 µM
HOP-92 NSCLC
  GI50: 1.63 µM
  TGI: 4.37 µM
UO-31 renal
  GI50: 2.06 µM
  TGI: 9.93 µM
SF-268 CNS
  GI50: 11.3 µM
  TGI: 30.3 µM
EKVX NSCLC
  GI50: 11.7 µM
  TGI: 25.5 µM
K-562 leukemia
  GI50: 1.09 µM
  TGI: > 100 µM
SN12C renal
  GI50: 4.21 µM
  TGI: 16.2 µM
NCI-H522 lung
  GI50: 1.72 µM
  TGI: 4.83 µM
M14 melanoma
  GI50: 2.02 µM
  TGI: 4.92 µM
HCC-2998 colon
  GI50: 13.3 µM
  TGI: 29.1 µM
COLO 205 colon
  GI50: 2.06 µM
  TGI: 4.04 µM
CAKI-1 renal
  GI50: 1.78 µM
  TGI: 4 µM
NCI-H23 lung
  GI50: 3.5 µM
  TGI: 12.8 µM
NCI-H226 lung
  GI50: 10 µM
  TGI: 29 µM
CCRF-CEM leukemia
  GI50: 0.832 µM
  TGI: > 100 µM
MDA-MB-435
  GI50: 2.8 µM
  TGI: 8.47 µM
MALME-3M melanoma
  GI50: 1.84 µM
  TGI: 3.74 µM
SK-OV-3 ovarian
  GI50: 17 µM
  TGI: 31.9 µM
HCT-15 colon
  GI50: 2.21 µM
  TGI: 5.42 µM
UACC-257 melanoma
  GI50: 1.76 µM
  TGI: 4.83 µM
MDA-MB-231 breast
  GI50: 2.71 µM
  TGI: 8.65 µM
OVCAR-3 ovarian
  GI50: 1.66 µM
  TGI: 3.2 µM
NCI/ADR-RES ovarian
  GI50: 24.1 µM
  TGI: 85.3 µM
SK-MEL-5 melanoma
  GI50: 4.1 µM
  TGI: 14.9 µM
A549 NSCLC
  GI50: 18.8 µM
  TGI: 38.4 µM
UACC-62 melanoma
  GI50: 3.39 µM
  TGI: 14.4 µM
786-0 renal
  GI50: 2.09 µM
  TGI: 4.84 µM
OVCAR-5 ovarian
  GI50: 4.01 µM
  TGI: 15.4 µM
NCI-H460 lung
  GI50: 18.8 µM
  TGI: 35.8 µM
T-47D breast
  GI50: 2.27 µM
  TGI: 7.17 µM
DU-145 prostate
  GI50: 2.14 µM
  TGI: 4.6 µM

## COc1ccc(C(O)c2cc3c(N)c(C(=O)Nc4cccc(OC)c4)sc3nc2C)cc1 (centres undefined)
ACHN renal
  GI50: 1.21 µM
  TGI: 3.15 µM
SR leukemia
  GI50: 0.301 µM
  TGI: 7.51 µM
PC-3 prostate
  GI50: 1.15 µM
  TGI: 3.04 µM
MCF7 breast
  GI50: 0.289 µM
  TGI: > 50 µM
BT-549 breast
  GI50: 1.23 µM
  TGI: 3.22 µM
A498 renal
  GI50: > 50 µM
  TGI: > 50 µM
RPMI-8226 leukemia
  GI50: 0.174 µM
  TGI: 0.809 µM
RXF 393 renal
  GI50: 1.01 µM
  TGI: 2.31 µM
HCT-116 colon
  GI50: 0.242 µM
  TGI: 0.953 µM
OVCAR-4 ovarian
  GI50: 2.17 µM
  TGI: > 50 µM
IGROV1 ovarian
  GI50: 1.17 µM
  TGI: 3.46 µM
SK-MEL-28 melanoma
  GI50: 1.58 µM
  TGI: 4.94 µM
MOLT-4 leukemia
  GI50: 1.43 µM
  TGI: 4.59 µM
SNB-19 CNS
  GI50: 1.99 µM
  TGI: > 50 µM
LOX IMVI melanoma
  GI50: 0.879 µM
  TGI: 1.64 µM
OVCAR-8 ovarian
  GI50: 1.57 µM
  TGI: > 50 µM
HL-60(TB) leukemia
  GI50: 1.35 µM
  TGI: > 50 µM
HS 578T breast
  GI50: 1.65 µM
  TGI: 4.67 µM
U251 CNS
  GI50: 1.34 µM
  TGI: 7.37 µM
SF-295 CNS
  GI50: 1.42 µM
  TGI: 4.5 µM
SF-539 CNS
  GI50: 1.26 µM
  TGI: 3.03 µM
SK-MEL-2 melanoma
  GI50: 49.8 µM
  TGI: > 50 µM
KM12 colon
  GI50: 1.03 µM
  TGI: 2.41 µM
SNB-75 CNS
  GI50: 12.2 µM
  TGI: > 50 µM
HOP-62 NSCLC
  GI50: 1.94 µM
  TGI: > 50 µM
TK-10 renal
  GI50: 5.99 µM
  TGI: > 50 µM
HOP-92 NSCLC
  GI50: > 50 µM
  TGI: > 50 µM
UO-31 renal
  GI50: 0.838 µM
  TGI: 1.72 µM
SF-268 CNS
  GI50: 1.77 µM
  TGI: 37.9 µM
EKVX NSCLC
  GI50: 1.6 µM
  TGI: > 50 µM
K-562 leukemia
  GI50: 1.2 µM
  TGI: 7.2 µM
SN12C renal
  GI50: 1.24 µM
  TGI: 3.38 µM
NCI-H522 lung
  GI50: 1.43 µM
  TGI: 4.94 µM
M14 melanoma
  GI50: 1.28 µM
  TGI: 4.65 µM
HCC-2998 colon
  GI50: 0.871 µM
  TGI: 1.63 µM
COLO 205 colon
  GI50: 1.75 µM
  TGI: > 50 µM
CAKI-1 renal
  GI50: 1.53 µM
  TGI: 5.27 µM
NCI-H23 lung
  GI50: 1.2 µM
  TGI: 3.29 µM
NCI-H226 lung
  GI50: 4.01 µM
  TGI: 36.8 µM
CCRF-CEM leukemia
  GI50: 1.31 µM
  TGI: 4.64 µM
MDA-MB-435
  GI50: 1.11 µM
  TGI: 2.18 µM
MALME-3M melanoma
  GI50: 1.91 µM
  TGI: 28.9 µM
SK-OV-3 ovarian
  GI50: 11.5 µM
  TGI: > 50 µM
HT29 colon
  GI50: 1.36 µM
  TGI: 3.7 µM
HCT-15 colon
  GI50: 1 µM
  TGI: 2.51 µM
UACC-257 melanoma
  GI50: 1.74 µM
  TGI: > 50 µM
MDA-MB-231 breast
  GI50: 1.39 µM
  TGI: 3.97 µM
OVCAR-3 ovarian
  GI50: 1.26 µM
  TGI: 3.23 µM
NCI/ADR-RES ovarian
  GI50: 1.38 µM
  TGI: 3.96 µM
SK-MEL-5 melanoma
  GI50: 1.69 µM
  TGI: 5.42 µM
A549 NSCLC
  GI50: 5.46 µM
  TGI: > 50 µM
UACC-62 melanoma
  GI50: 1.16 µM
  TGI: 3.07 µM
786-0 renal
  GI50: 1.14 µM
  TGI: 2.79 µM
NCI-H460 lung
  GI50: 1.97 µM
  TGI: > 50 µM
T-47D breast
  GI50: 3.83 µM
  TGI: > 50 µM
DU-145 prostate
  GI50: 2.07 µM
  TGI: > 50 µM

From PubChem BioAssay (NCI)
